# According to patent US20140088006A1, “Stem Cell Mobilization and Tissue Repair and Regeneration” (Wellstat Therapeutics Corporation, priority 2011, published 2014):
# Values joined by “and” are separate entries in the source; they are usually repeats but may differ in a detail not shown here. Equal values may be shown once. No end group written: not given here.
# How the values were obtained:
# [1] = Glucose level in db/db mice treated for 5 weeks; type: in vivo; settings: for Glucose level in peripheral blood (nonfasting): 5 mg/kg s.c./i.v. for 5 weeks, individual mice; for Glucose level in peripheral blood, group mean: 5 mg/kg, high values set to 600 mg/dL
# Description: Homozygous Leptin receptor-deficient diabetic db/db male mice—BKS.Cg-Dock7m+/+Leprdb/J (Jackson Laboratories, stock #000642) become obese at 3-4 weeks of age. Elevation of plasma insulin usually occurs at 10-14 days and elevation of blood glucose at 6-8 weeks of age. We examined the effects of Compound X on the onset of hyperglycemia in db/db mice. Continuous Compound X treatments were performed during 5 weeks.
# At day 0, homozygous 7-week-old female db/db mice were divided into 2 experimental groups (n=10); both groups received subcutaneous injections for 5 consecutive days: Group 1 received 0.9% saline and group 2 received 5 mg/kg Compound X. The following week mice received intravenous injections for 4 consecutive days. The next two weeks mice received subcutaneous injections 3 times per week and the last week of treatment was given intravenously 3 times per week.
# Nonfasting blood glucose levels were measured weekly from tail bleeds with a handheld glucometer. Animal body weights were taken throughout the course of the study.
# At the end of experiment, serum from blood was obtained from the retro-orbital sinus after an overnight fast.
# spleen cells = test: Flow cytometry analysis of stem cell phenotypes in spleens on day 7; type: in vivo, mice; settings: 250 μg/kg
# [2] = tested on: CFU-GEMM progenitor cells; test: Mobilization of CFU-GEMM in diabetic db/db mice; type: in vivo
# [3] = Blood glucose before and 7 weeks after treatment in wound healing study; type: in vivo, db/db mice; settings: 4 days i.v. treatment course; 7 weeks after the treatment
# Description: Note, that mice were taken for the wound healing experiment when their glucose level was high; baseline glucose was measured by glucometer from tail bleed one day before the wound healing experiment next glucose measurement was taken at the end of the study, 7 weeks after the treatment with intravenous injections of Compound X or Saline.
# [4] = tested on: white blood cells in peripheral blood; test: White blood cell number after 4 daily subcutaneous injections; type: in vivo, C57Bl/6 male mice; set-up: White blood cell number in peripheral blood: unit not given here; settings: for White blood cell number in peripheral blood: 1 hr after injection
# Description: This example is based on a protocol for a 4-day course of once-daily Compound X injections into C57Bl/6 male mice similar to G-CSF. Two effective dose levels of Compound X were found previously to mobilize HSC 1 hr after single injection and were selected for this experiment. Four-month old C57Bl/6 male mice (Jackson Laboratories) were subcutaneously injected with 0.9% saline, 125 μg/kg Compound X or 250 μg/kg Compound X on days 1, 2, 3 and 4 as described in Table 4. Each day, one-hour post injections, peripheral blood from 3 mice per group was harvested from the orbital plexus into EDTA-containing tubes. On day 4, a femur and spleen were also removed from mice to assess by FACS whether any toxicity aroused from repeated injections of Compound X.
# As in the previous example to determine mobilization of colony-forming cells out of the bone marrow, mononuclear cells from peripheral blood were plated into MethoCult 3434 media (Stem Cell Technologies). Briefly, after white blood cell counting, the remaining peripheral blood was diluted (1:1, v/v) with 0.9% saline (APP Pharmaceutical) and layered (2:1, v/v) onto 1-Step™1.077 A (Accurate Chemicals) in 15-ml centrifuge tubes. Cells were centrifuged at 600×g for 20 min at room temperature. The mononuclear cells were harvested from the interface between the plasma layer and the 1-Step™ A solution using a 1-ml syringe and blunt-end needle. The cells were transferred to 15-ml centrifuge tubes and washed twice in 1×PBS. Cells were resuspended in 1 ml of IMDM and cell counts were obtained using the Coulter counter. Cells were placed into 35-mm Petri dishes at 200,000 cells per dish with 5 dishes per group. Cells incubated for 10 days in a 37° C. and 5% CO2 humidified incubator. CFU colonies were then scored using an inverted microscope—CFU-GM detected on day 7 and CFU-GEMM—on day 10. Data presented in Tables 7, 8 and 9, FIGS. 3 and 4.
sequence,measurement,setting,value
"FPHFDLSHGSAQV [Compound X, tridecapeptide that acts on stem cells]",Glucose level in peripheral blood (nonfasting),[1]; Week 1,160 mg/dL and 121 mg/dL and 122 mg/dL and 235 mg/dL and 117 mg/dL and 178 mg/dL and 248 mg/dL and 119 mg/dL and 181 mg/dL and 194 mg/dL
same,Glucose level in peripheral blood (nonfasting),[1]; Week 2,481 mg/dL and 377 mg/dL and 177 mg/dL and 472 mg/dL and 273 mg/dL and 452 mg/dL and 500 mg/dL and 189 mg/dL and 502 mg/dL and 430 mg/dL
same,Glucose level in peripheral blood (nonfasting),[1]; Week 3,"541 mg/dL (2×) and 447 mg/dL and 271 mg/dL and HI (High/Hi = ≧600 mg/dL, the maximum possible glucometer reading) and 546 mg/dL and 496 mg/dL and 474 mg/dL and 267 mg/dL and 463 mg/dL"
same,Glucose level in peripheral blood (nonfasting),[1]; Week 4,"398 mg/dL and 416 mg/dL and 206 mg/dL and 599 mg/dL and 440 mg/dL and 458 mg/dL and 591 mg/dL and 257 mg/dL and HI (High/Hi = ≧600 mg/dL, the maximum possible glucometer reading) and 549 mg/dL"
same,Glucose level in peripheral blood (nonfasting),[1]; Week 5,"481 mg/dL and 443 mg/dL and 256 mg/dL and 527 mg/dL and 525 mg/dL and 582 mg/dL and 588 mg/dL and 467 mg/dL and HI (High/Hi = ≧600 mg/dL, the maximum possible glucometer reading) (2×)"
same,Glucose level in peripheral blood (nonfasting),[1]; Week 6,"400 mg/dL and 541 mg/dL and 265 mg/dL and 537 mg/dL and 576 mg/dL and HI (High/Hi = ≧600 mg/dL, the maximum possible glucometer reading) (4×) and 457 mg/dL"
same,"Glucose level in peripheral blood, group mean",[1]; Week 1,168 ± 15 mg/dL
same,"Glucose level in peripheral blood, group mean",[1]; Week 2,385 ± 40 mg/dL
same,"Glucose level in peripheral blood, group mean",[1]; Week 3,465 ± 36 mg/dL
same,"Glucose level in peripheral blood, group mean",[1]; Week 4,451 ± 44 mg/dL
same,"Glucose level in peripheral blood, group mean",[1]; Week 5,506 ± 33 mg/dL
same,"Glucose level in peripheral blood, group mean",[1]; Week 6,517 ± 35 mg/dL
same,nonfasting glucose level compared to Saline control,[1]; at all timepoints,decreased glucose level
same,mice with lower than 200 mg/dL fasting serum glucose,[1]; end of the 5-week study,2 mice
same,mice with overnight fasting serum glucose <300 mg/dL,"[1]; end of the 5-week study, vehicle 3/10",7/10
same,accumulation of cells with stem cell phenotypes in the spleens,spleen cells,No accumulation
same,"CD34+ Flk-1+, Mean",spleen cells; spleen,0.03
same,"CD34+ Flk-1−, Mean",spleen cells; spleen,0.05
same,"CD34− Flk-1+, Mean",spleen cells; spleen,0.38
same,"CD150+ CD48−, Mean",spleen cells; spleen,0.17
same,"CD244+ CD48+, Mean",spleen cells; spleen,0.78
same,"Lin− Kit+ Sca-1+, Mean",spleen cells; spleen,0.07
same,"Lin− Kit+ Sca-1−, Mean",spleen cells; spleen,0.50
same,"Lin− Kit^low Sca-1+, Mean",spleen cells; spleen,0.17
same,increase of CFU-GEMM number in peripheral blood vs Vehicle or 250 ug/kg,"[2]; intravenous 5 mg/kg, one-hour post injection",> 3 times
same,mobilization of progenitor cells into the peripheral blood,"[2]; subcutaneous, doses as high as 5 mg/kg",failed to mobilize
same,glucose level in blood,[3],decreased glucose level
same,White blood cell number in peripheral blood,"[4]; 125 μg/kg s.c. daily, Day 1",7.4
same,White blood cell number in peripheral blood,"[4]; 125 μg/kg s.c. daily, Day 2",8.8
same,White blood cell number in peripheral blood,"[4]; 125 μg/kg s.c. daily, Day 3",6.0
same,White blood cell number in peripheral blood,"[4]; 125 μg/kg s.c. daily, Day 4",8.6
same,White blood cell number in peripheral blood,"[4]; 250 μg/kg s.c. daily, Day 1",8.6
same,White blood cell number in peripheral blood,"[4]; 250 μg/kg s.c. daily, Day 2",8.2
same,White blood cell number in peripheral blood,"[4]; 250 μg/kg s.c. daily, Day 3",10.2
same,White blood cell number in peripheral blood,"[4]; 250 μg/kg s.c. daily, Day 4",9.2
same,White blood cell number,"[4]; multiple daily injections, 125 and 250 μg/kg",did not change
